Test results from EP0793481B1, “COSMETIC COMPOSITION CONTAINING HYDROXY ALKANOATE DERIVATIVES” (priority 1993, dated 1995).
Read-outs that look alike come from different tables or passages of the source.

Assays:
[1] = Lactic acid on tape strips from volar forearm after lauryl lactate dispersion; type: in vivo, human; parameters: unit not given here; conditions: 2% by weight dispersion in water, 100 µl
Description: This dispersion was tested on the volar forearm of a human volunteer. 100 µl of the dispersion was applied to each of three areas (15cm^2) on the volar forearm, rubbed in and allowed to dry. Ten Desquarne tape strips were taken fropm a fourth, untreated area. After 1 hour ten tape strips were taken from one treated area. Ten tape strips were taken from the other treated areas after 3 and 8 hours respectively. The tape strips taken after 1 hour and 3 hours were stored at room temperature for the rest of the 8 hour period, allowing enzymic hydrolysis.
The amount of lactic acid on each tape strip was determined, by the procedure quoted in Example 1. […] Moreover, this is at all levels, indicating penetration of the lactate ester into the skin where it is hydrolysed.

[2] = Deposition of radiolabelled lactylate from diluted detergent composition after rinse-off, scintillation count of tape strips; type: in vitro ADME, pig; conditions: result in words, 0.12M, 100 µl, left for 10 seconds and rinsed off
Description: Radiolabelled sodium lauroyl lactylate, as used in Example 2, was incorporated into a detergent composition containing
This solution was diluted with about four times its own volume of water, so that the concentration of sodium lauroyl lactylate was 0.12M.
100 µl quantities of this diluted solution were applied to test pieces of pig ear, left for 10 seconds and rinsed off. Excess water was removed with cotton wool, and nine tape strips were taken. All the tape strips were placed in a vial with phosphate buffer and scintillation fluid. The radiolabel content was measured using a scintillation counter.

[3] = Hydrolysis in skin: thin-layer chromatography of radiolabel extracted from tape strips; type: in vitro ADME, pig; conditions: after six hours; for metabolised at 6 h / remaining at 6 h: pig, ear skin, topical or ocular, mean of three repeats; for metabolised at 6 h: spot of hydrolysis products, read-out: % of total label, peak 1; for remaining at 6 h: spot of the applied compound itself, read-out: % of total label, peak 2
Description: In a similar experiment nine tape strips were taken after six hours. The first three strips were incubated in 3ml of phosphate buffer. The next three strips and the final three strips were likewise incubated. After 30 minutes the buffer solutions were spotted onto a thin-layer chromatography plate (bearing silica gel as the stationary phase).
The plate was eluted with 80:20:2 hexane:ether:acetic acid mixture. The spots on the plate were detected and quantified by their emitted radiation. […] The results (mean of three repeats) were:
The results of thin layer chromatography, showing the extent of hydrolysis were: […]

[4] = Penetration of acyl lactylates: serial tape stripping of skin and lactate assay (Sigma 735-10) of the tapes; conditions: result in words; 10% by weight solutions, four hours
Description: The penetration of acyl lactylate and lactic acid in this manner can be determined by serial tape stripping and by biochemical assay of free lactate from skin cells adhering to the tape.
The methodology employed using pig skin is as follows:
The tape employed in this test is Desquame tape available from Diastron. Following topical application to skin of acyl lactylate, pieces of this tape are applied to the skin and then removed, and skin cells are assayed for lactate using Sigma 735-10 lactate assay kit. Thus, by repeated stripping of the same area of skin the degree of penetration of the topically applied acyl lactylate and its cleavage by epidermal esterases can be determined.
10% by weight solutions of sodium lactate (control) and of five different sodium acyl lactylates having from C8 to C18 acyl chains, were prepared in pH 7.0 Sorenson's phosphate buffer, 5 mM. Seven pieces of full thickness skin, taken from pig ear, were cut to 4 x 4cm and pinned out. 100 µl aliquots of the 6 test solutions were applied to the entire surface of six pieces of skin, the remaining piece of skin was used as a no-treatment control. […]
Each tape was placed in a labelled 1ml tube and 800µl of 5.00mM phosphate buffer, pH 7.00 was added to each tube. […] The buffer reagent mixture from each tube was then transferred to microcuvettes and the absorbtion of the solutions measured at 540nm using a spectrophotometer.

[5] = Measurement of skin conductivity (SKICON 200) as index of skin moisturisation, panel of volunteers; type: in vivo, human; conditions: for mean adjusted SKICON 200 readings: 100mM in buffer (3.0%), 100µl, relative to pretreatment reading
Source text: The topical application to skin of hydroxyalkanoate derivatives improves the retention of moisture by the skin and/or increases the level of moisture in the skin to a significant extent. […] An increase in skin conductivity is thus used as an index of increase in skin moisturisation.
This method measures the cumulative effect of applying products to the skin, on the conductivity of the superficial stratum corneum.
It is well established that the conductivity of the skin, as measured by placing the probe of a suitable conductivity meter in contact with the skin, is proportional to the water content of the outermost strata of the epidermis. The measurement of skin conductivity can therefore be used to indicate the ability of a topically applied product to hydrate the epidermis: see D. van Neste, J. Dermatol Sci., 2, p119 - 124, (1991), "Comparative Study of Normal and Rough Human Skin Hydration in vivo: evaluation with four different instruments". The method is widely used and accepted as indicative of product skin moisturisation efficacy.
The device for measuring skin conductivity employed in this test is the SKICON 200, a skin hygrometer available from IBS Co.
A small panel of volunteers, greater than six in number and preferably from 12 to 20, is recruited for the test.
Two sites 3 x 4cm are marked onto each volar forearm at least 6cm from either the wrist or elbow and with a separation of at least 6cm. Each site is treated once a day for five consecutive days with 100µl of a single treatment material. Allocation of material to left or right arm, upper or lower site is varied to avoid site effects. A total of two treatment materials can be used, one site per panellist remaining untreated for the entire five day period.
On the first day of the test, panellists are allowed to equilibrate in a climate controlled environment (20°C 70% RH for 15 minutes with no significant sensory stimuli). Eight conductivity measurements are taken per site using random positions within the test site; these represent the baseline. 100µl of treatment material is then applied and gently rubbed into the test site for each of the three treatment sites. Further four sets of eight readings from the treatment sites are then taken one, two and four hours after application, again using the equilibration period in a climate controlled environment. This procedure is repeated on the following four days.
The effect of each treatment is then assessed using the following method: adjusted effect =(Mean treatment site reading)/(Mean pretreatment site reading) [formula]
This value is calculated for each treatment, for each timepoint on each day of treatment for each panellist, resulting in a final mean value for the adjusted effect for the entire panel also being obtained by calculation.
The following treatments were applied in this test • 1. 5mM Sorensons phosphate buffer pH 7.00 + 2% Nipagin • 2. 100mM Sodium dodecoyl lactylate in buffer (a concentration of 3.0%) • 3. No treatment
The results are shown in the table below which records the mean adjusted SKICON 200 readings (i.e. proportional to initial skin conductivity = moisturisation) at hourly periods up to 4 hours.

CCCCCCCCCCCCOC(=O)C(C)O (centres unmarked) [Lauryl lactate]
amount of lactic acid on each tape strip ([1]; 1 Hour, Tape No 1): 0.289
amount of lactic acid on each tape strip ([1]; 1 Hour, Tape No 2): 0.361
amount of lactic acid on each tape strip ([1]; 1 Hour, Tape No 3): 0.217
amount of lactic acid on each tape strip ([1]; 1 Hour, Tape No 4): 0.124
amount of lactic acid on each tape strip ([1]; 1 Hour, Tape No 5): 0.192
amount of lactic acid on each tape strip ([1]; 1 Hour, Tape No 6): 0.201
amount of lactic acid on each tape strip ([1]; 1 Hour, Tape No 7): 0.179
amount of lactic acid on each tape strip ([1]; 1 Hour, Tape No 8): 0.177
amount of lactic acid on each tape strip ([1]; 1 Hour, Tape No 9): 0.211
amount of lactic acid on each tape strip ([1]; 1 Hour, Tape No 10): 0.169
amount of lactic acid on each tape strip ([1]; 3 Hours, Tape No 1): 0.282
amount of lactic acid on each tape strip ([1]; 3 Hours, Tape No 2): 0.250
amount of lactic acid on each tape strip ([1]; 3 Hours, Tape No 3): 0.252
amount of lactic acid on each tape strip ([1]; 3 Hours, Tape No 4): 0.262
amount of lactic acid on each tape strip ([1]; 3 Hours, Tape No 5): 0.485
amount of lactic acid on each tape strip ([1]; 3 Hours, Tape No 6): 0.487
amount of lactic acid on each tape strip ([1]; 3 Hours, Tape No 7): 0.271
amount of lactic acid on each tape strip ([1]; 3 Hours, Tape No 8): 0.246
amount of lactic acid on each tape strip ([1]; 3 Hours, Tape No 9): 0.254
amount of lactic acid on each tape strip ([1]; 3 Hours, Tape No 10): 0.269
amount of lactic acid on each tape strip ([1]; 8 Hours, Tape No 1): 0.260
amount of lactic acid on each tape strip ([1]; 8 Hours, Tape No 2): 0.210
amount of lactic acid on each tape strip ([1]; 8 Hours, Tape No 3): 0.250
amount of lactic acid on each tape strip ([1]; 8 Hours, Tape No 4): 0.222
amount of lactic acid on each tape strip ([1]; 8 Hours, Tape No 5): 0.259
amount of lactic acid on each tape strip ([1]; 8 Hours, Tape No 6): 0.230
amount of lactic acid on each tape strip ([1]; 8 Hours, Tape No 7): 0.241
amount of lactic acid on each tape strip ([1]; 8 Hours, Tape No 8): 0.234
amount of lactic acid on each tape strip ([1]; 8 Hours, Tape No 9): 0.194
amount of lactic acid on each tape strip ([1]; 8 Hours, Tape No 10): 0.449

CCCCCCCCCCCC(=O)OC(C)C(=O)O (centres unmarked) [Lauroyl lactylate, Sodium lauroyl lactylate]
deposition onto the skin [2]: a small proportion of the radiolabelled lactylate had deposited onto the skin
metabolised at 6 h ([3]; Tapes 1-3): 13.1%
remaining at 6 h ([3]; Tapes 1-3): 8.9%
metabolised at 6 h ([3]; Tapes 4-6): 35.1%
remaining at 6 h ([3]; Tapes 4-6): 64.9%
metabolised at 6 h ([3]; Tapes 7-9): 45.2%
remaining at 6 h ([3]; Tapes 7-9): 54.8%
hydrolysis in the skin ([3]; result in words): had occurred in each instance and had occurred to the greatest extent with the material which had penetrated furthest into the skin

CC(O)C(=O)O (centres unmarked) [G, sodium lactate, reference compound]
penetration into the stratum corneum [4]: virtually no penetration occurs

CCCCCCCCCCCC(=O)OC(C)C(=O)O (centres unmarked) [Na Acyl Lactylate, Sodium dodecoyl lactylate]
mean adjusted SKICON 200 readings ([5]; T=0 Hr): 1.00
mean adjusted SKICON 200 readings ([5]; T=1 Hr): 1.27
mean adjusted SKICON 200 readings ([5]; T=2 Hr): 1.30
mean adjusted SKICON 200 readings ([5]; T=4 Hr): 1.31
moisturisation of the skin ([5]; result in words, compared with the buffer alone): significant moisturisation of the skin was achieved
